Experimental data from ChEMBL document CHEMBL4414672, “Synthesis of certain benzothieno[3,2-d]pyrimidine derivatives as a selective SIRT2 inhibitors” (Eur J Med Chem, 2020).
Values after ≈ are worked out from the molar mass of the structure shown.

Columns and labels:
OVCAR-4 = test: Growth inhibition of human OVCAR4 cells at 10^-5 M incubated for 48 hrs by sulforhodamine B assay; format: functional; conditions: OVCAR-4, 48 h, read-out: GI
KM12 = test: Growth inhibition of human KM12 cells at 10^-5 M incubated for 48 hrs by sulforhodamine B assay; format: functional; conditions: KM12, 48 h, read-out: GI
MCF7 [1] = test: Growth inhibition of human MCF7 cells at 10^-5 M incubated for 48 hrs by sulforhodamine B assay; format: functional; conditions: MCF7, 48 h, read-out: GI
HOP-92 = test: Growth inhibition of human HOP92 cells at 10^-5 M incubated for 48 hrs by sulforhodamine B assay; format: functional; conditions: HOP-92, 48 h, read-out: GI
NCI-H522 = test: Growth inhibition of human NCI-H522 cells at 10^-5 M incubated for 48 hrs by sulforhodamine B assay; format: functional; conditions: NCI-H522, 48 h, read-out: GI
HT-29 = test: Growth inhibition of human HT-29 cells at 10^-5 M incubated for 48 hrs by sulforhodamine B assay; format: functional; conditions: HT-29, 48 h, read-out: GI
UACC-257 = test: Growth inhibition of human UACC257 cells at 10^-5 M incubated for 48 hrs by sulforhodamine B assay; format: functional; conditions: UACC-257, 48 h, read-out: GI
SNB-75 = test: Growth inhibition of human SNB75 cells at 10^-5 M incubated for 48 hrs by sulforhodamine B assay; format: functional; conditions: SNB-75, 48 h, read-out: GI
CCRF-CEM = test: Growth inhibition of human CCRF-CEM cells at 10^-5 M incubated for 48 hrs by sulforhodamine B assay; format: functional; conditions: read-out: GI
MDA-MB-435 = test: Growth inhibition of human MDA-MB-435 cells at 10^-5 M incubated for 48 hrs by sulforhodamine B assay; format: functional; conditions: MDA-MB-435, 48 h, read-out: GI
MCF7 [2] = test: Cytotoxicity against human MCF7 cells assessed as reduction in cell viability after 24 hrs by MTT assay; format: functional, cell-based; conditions: MCF7, 24 h
UO-31 = test: Cytotoxicity against human UO31 cells assessed as reduction in cell viability after 24 hrs by MTT assay; format: functional, cell-based; conditions: UO-31, 24 h
EKVX = test: Growth inhibition of human EKVX cells at 10^-5 M incubated for 48 hrs by sulforhodamine B assay; format: functional; conditions: read-out: GI
LOX IMVI = test: Growth inhibition of human LOXIMVI cells at 10^-5 M incubated for 48 hrs by sulforhodamine B assay; format: functional; conditions: read-out: GI
HCT-116 = test: Growth inhibition of human HCT116 cells at 10^-5 M incubated for 48 hrs by sulforhodamine B assay; format: functional; conditions: HCT-116, 48 h, read-out: GI
U-251 = test: Growth inhibition of human U251 cells at 10^-5 M incubated for 48 hrs by sulforhodamine B assay; format: functional; conditions: U-251, 48 h, read-out: GI
DU-145 = test: Growth inhibition of human DU145 cells at 10^-5 M incubated for 48 hrs by sulforhodamine B assay; format: functional; conditions: DU-145, 48 h, read-out: GI
OVCAR-3 = test: Growth inhibition of human OVCAR3 cells at 10^-5 M incubated for 48 hrs by sulforhodamine B assay; format: functional; conditions: OVCAR-3, 48 h, read-out: GI
NCI/ADR-RES = test: Growth inhibition of human NCI/ADR-RES cells at 10^-5 M incubated for 48 hrs by sulforhodamine B assay; format: functional; conditions: read-out: GI
SN12C = test: Growth inhibition of human SN12C cells at 10^-5 M incubated for 48 hrs by sulforhodamine B assay; format: functional; conditions: read-out: GI
HCC 2998 = test: Growth inhibition of human HCC2998 cells at 10^-5 M incubated for 48 hrs by sulforhodamine B assay; format: functional; conditions: HCC 2998, 48 h, read-out: GI
OVCAR-5 = test: Growth inhibition of human OVCAR5 cells at 10^-5 M incubated for 48 hrs by sulforhodamine B assay; format: functional; conditions: OVCAR-5, 48 h, read-out: GI
A549 = test: Growth inhibition of human A549/ATCC cells at 10^-5 M incubated for 48 hrs by sulforhodamine B assay; format: functional; conditions: A549, 48 h, read-out: GI

Row | Structure (SMILES) | inhibition of growth at 10 µM (OVCAR-4) | inhibition of growth at 10 µM (KM12) | inhibition of growth at 10 µM (MCF7 [1]) | inhibition of growth at 10 µM (HOP-92) | inhibition of growth at 10 µM (NCI-H522) | inhibition of growth at 10 µM (HT-29) | inhibition of growth at 10 µM (UACC-257) | inhibition of growth at 10 µM (SNB-75) | inhibition of growth at 10 µM (CCRF-CEM) | inhibition of growth at 10 µM (MDA-MB-435) | inhibition of growth at 10 µM (EKVX) | inhibition of growth at 10 µM (LOX IMVI) | inhibition of growth at 10 µM (HCT-116) | inhibition of growth at 10 µM (U-251) | inhibition of growth at 10 µM (DU-145) | inhibition of growth at 10 µM (OVCAR-3) | inhibition of growth at 10 µM (NCI/ADR-RES) | inhibition of growth at 10 µM (SN12C) | inhibition of growth at 10 µM (HCC 2998) | inhibition of growth at 10 µM (OVCAR-5) | also measured
1 | N#Cc1cnn(C2=Nc3c(sc4ccc(Cl)cc34)C(c3cccc([N+](=O)[O-])c3)N2)c1N (configuration not stated) | -1.38% | 3.84% | 29.9% | 1.55% | 4.1% | -17.9% | -3.69% | 11.5% | -11.9% | -7.15% | 20.9% | 12.5% | 5.22% | -11.2% | -10.5% | -7.11% | 5.59% | -7.06% | -3.42% | 4.37% | IC50 (MCF7 [2]): 11.9 µg/mL (≈ 26.5 µM); IC50 (UO-31): 32.5 µg/mL (≈ 72.2 µM); inhibition of growth at 10 µM (A549): -3.91%
2 | S=C1Nc2c(sc3ccc(Cl)cc23)C(c2ccc3ccccc3c2)N1 (configuration not stated) | 11% | -6.6% | -6.73% | 27.5% | 17.7% | 0.32% | 1.95% | 26% | -3.09% | -2.5% | 14.6% | 7.47% | 9.94% | 7.46% | -6.73% | 3.25% | 4.45% | 9.45% | -16.7% | 5.36% | IC50 (MCF7 [2]): 19.6 µg/mL (≈ 51.6 µM); IC50 (UO-31): 7.91 µg/mL (≈ 20.8 µM); inhibition of growth at 10 µM (A549): 7.47%
3 | O=C1/C(=C\c2ccc3ccccc3c2)Sc2ccc(Cl)cc21 | 12.3% | -1.53% | -10.2% | 27.3% | 11.7% | -1.78% | -3.36% | -0.33% | -2.13% | -2.15% | 12.7% | 1.77% | 6.88% | -1.36% | -10.2% | -1.8% | 2.51% | 6.38% | -27.2% | -2.92% | IC50 (MCF7 [2]): 43.9 µg/mL (≈ 136 µM); IC50 (UO-31): 39.9 µg/mL (≈ 124 µM); inhibition of growth at 10 µM (A549): -7.74%
4 | CCOC(=O)CSC1=Nc2c(sc3ccc(Cl)cc23)C(c2cccc([N+](=O)[O-])c2)N1 (configuration not stated) | -4.53% | -0.19% | 20.1% | -10.1% | 4.34% | -15.9% | 2.03% | 11.3% | -8.55% | -10.6% | 15.9% | 0.14% | 3.88% | 3.38% | -8.66% | 0.63% | 1.65% | 2.9% | -16.9% | -1.2% | IC50 (MCF7 [2]): 22.1 µg/mL (≈ 47.9 µM); IC50 (UO-31): 11.8 µg/mL (≈ 25.6 µM); inhibition of growth at 10 µM (A549): 2.51%
5 | O=[N+]([O-])c1cccc(C2NC(N3CCOCC3)=Nc3c2sc2ccc(Cl)cc32)c1 (configuration not stated) | 1.77% | 4.2% | 23.1% | 10.1% | 3.46% | -2.72% | -6.32% | 10.7% | -3.36% | -6.59% | 16.4% | 3.74% | 6.8% | 1.11% | -13.7% | -0.17% | -3.21% | 3.85% | -6.02% | -1.26% | IC50 (MCF7 [2]): 10.4 µg/mL (≈ 24.3 µM); IC50 (UO-31): 3.11 µg/mL (≈ 7.25 µM); inhibition of growth at 10 µM (A549): -1.35%
6 | O=[N+]([O-])c1cccc(C2NC(=S)Nc3c2sc2ccc(Cl)cc32)c1 (configuration not stated) | 8.46% | 1.91% | -8.3% | 6.43% | 13.7% | 4% | -0.4% | 24.4% | -11.8% | -3.92% | 26.5% | 7.83% | 13.4% | 4.4% | -8.3% | 7.97% | -1.46% | 7.47% | -13.8% | 0.45% | inhibition of growth at 10 µM (A549): 2.45%
7 | N=C1Nc2c(sc3ccc(Cl)cc23)C(c2cccc(Br)c2)N1 (configuration not stated) | 6.46% | 6.3% | 25.6% | 3.3% | 12.2% | -3.97% | 1.22% | 14.4% | -20.7% | 1.88% | 14.5% | 1.33% | 3.22% | -3.32% | -10.7% | 0.84% | 2.51% | 6.52% | -13.8% | -3.33% | inhibition of growth at 10 µM (A549): 1.98%
